Laboratory results taken from patent US20260102383A1, “LPAR1 Inhibitors” (AbbVie Inc., priority 2024, published 2026).

Target: T1, human LPAR1 (Homo sapiens, UniProt Q92633)
T1 construct: host or cells: TangoEDG2-bla U2OS cells
Assay: Arrestin assay (Arrestin Reporter EDG2-bla U2OS), inhibition of LPA-stimulated signal
Type: cell-based
Conditions: TangoEDG2-bla U2OS cells expressing human LPAR1; 0.25 μM LPA; read-out: Arrestin Reporter EDG2-bla U2OS Human Merged IC50
How it was run: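 IC50 comes from a variable-slope 4-parameter fit of % inhibition, calculated from the beta-lactamase FRET ratio (emission 460/530 nm, excitation 409 nm, 2 h development at RT). Compounds, 10 μM down to 0.00006 μM in 3-fold steps, were given 1 h before 0.25 μM final LPA for 3 h in TangoEDG2-bla U2OS cells.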

T1 sequence (Q92633 whole entry): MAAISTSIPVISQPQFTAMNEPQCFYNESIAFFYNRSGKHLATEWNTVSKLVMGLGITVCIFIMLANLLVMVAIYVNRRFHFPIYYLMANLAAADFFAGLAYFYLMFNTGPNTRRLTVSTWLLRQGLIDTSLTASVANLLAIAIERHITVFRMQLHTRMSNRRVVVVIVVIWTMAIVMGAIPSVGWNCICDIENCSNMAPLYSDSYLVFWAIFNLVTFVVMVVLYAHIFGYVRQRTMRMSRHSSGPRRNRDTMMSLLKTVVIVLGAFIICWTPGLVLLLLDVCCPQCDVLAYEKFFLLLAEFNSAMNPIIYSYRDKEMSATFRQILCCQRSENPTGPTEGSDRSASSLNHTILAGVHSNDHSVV

Compound | IC50 [nM]
CC(C)c1ccnn1C1(C(=O)Nc2ccc(Cl)cc2OC(F)F)CCN(CC2(C(=O)O)[C@@H]3COC[C@@H]32)CC1 (stereo partly drawn) [Compound 177, (1S,5R)-6-[[4-[[4-chloro-2-(difluoromethoxy)phenyl]carbamoyl]-4-(5-isopropylpyrazol-1-yl)-1-piperidyl]methyl]-3-oxabicyclo[3.1.0]hexane-6-carboxylic acid] | 92.5
CC(C)c1ccnn1C1(C(=O)Nc2ccc(Cl)cc2OC(F)F)CCN(C[C@H](CC#N)C(=O)O)CC1 (single isomer, unassigned) [Compound 163] | 38.5
CC[C@H](CN1CCC(C(=O)Nc2ccc(Cl)cc2OC(F)F)(n2nccc2C(C)C)CC1)C(=O)O [Compound 122, (2R)-2-[[4-[[4-chloro-2-(difluoromethoxy)phenyl]carbamoyl]-4-(5-isopropylpyrazol-1-yl)-1-piperidyl]methyl]butanoic acid] | 23.9
CC(C)c1ccnn1C1(C(=O)Nc2ccc(Cl)cc2OC(F)F)CCN(CC(C(=O)O)C2CCOC2)CC1 (stereo not shown) [Compound 136, 3-[4-[[4-chloro-2-(difluoromethoxy)phenyl]carbamoyl]-4-(5-isopropylpyrazol-1-yl)-1-piperidyl]-2-tetrahydrofuran-3-yl-propanoic acid] | 46.7
CC(C)c1ccnn1C1(C(=O)Nc2ccc(Cl)cc2OC(F)F)CCN([C@H]2C[C@](C(=O)O)(C(F)F)C2)CC1 [Compound 221] | 27.7
CC(C)c1ccnn1C1(C(=O)Nc2ccc(Cl)cc2OC(F)F)CCN([C@H]2C[C@@](NS(C)(=O)=O)(C(=O)O)C2)CC1 [Compound 132, (1r,3r)-3-[4-[[4-chloro-2-(difluoromethoxy)phenyl]carbamoyl]-4-(5-isopropylpyrazol-1-yl)-1-piperidyl]-1-(methanesulfonamido) cyclobutanecarboxylic acid] | 178
CC(C)c1c(F)cnn1C1(C(=O)Nc2ccc(Cl)cc2OC(F)F)CCN(C[C@]2(C(=O)O)CC[C@@H](O)CC2)CC1 [Compound 162, (1s,4s)-1-[[4-[[4-chloro-2-(difluoromethoxy)phenyl]carbamoyl]-4-(4-fluoro-5-isopropyl-pyrazol-1-yl)-1-piperidyl]methyl]-4-hydroxy-cyclohexanecarboxylic acid] | 51.8
COc1cccc([C@@H](CN2CCC(C(=O)Nc3ccc(Cl)cc3OC(F)F)(n3nccc3C(C)C)CC2)C(=O)O)c1 [Compound 33, (2S)-3-[4-[[4-chloro-2-(difluoromethoxy)phenyl]carbamoyl]-4-(5-isopropylpyrazol-1-yl)-1-piperidyl]-2-(3-methoxyphenyl)propanoic acid] | 5.13
CO[C@H]1C[C@H]([C@H](CN2CCC(C(=O)Nc3ccc(Cl)cc3OC(F)F)(n3nccc3C(C)C)CC2)C(=O)O)C1 [Compound 229, (2R)-3-[4-[[4-chloro-2-(difluoromethoxy)phenyl]carbamoyl]-4-(5-isopropylpyrazol-1-yl)-1-piperidyl]-2-((1r,3R)-3-methoxycyclobutyl) propanoic acid] | 29.2
CC(C)c1ccnn1C1(C(=O)Nc2ccc(Cl)cc2OC(F)F)CCN(CC(CN2CCOC(F)(F)C2)C(=O)O)CC1 (stereo not shown) [Compound 237, 2-[[4-[[4-chloro-2-(difluoromethoxy)phenyl]carbamoyl]-4-(5-isopropylpyrazol-1-yl)-1-piperidyl]methyl]-3-(2,2-difluoromorpholin-4-yl)propanoic acid] | 16.5
CC(C)c1ccnn1C1(C(=O)Nc2ccc(Cl)cc2OC(F)F)CCN(CC2(C(=O)O)CCN(C(=O)C34CC(C)(C3)C4)CC2)CC1 [Compound 79, 4-[[4-[[4-chloro-2-(difluoromethoxy)phenyl]carbamoyl]-4-(5-isopropylpyrazol-1-yl)-1-piperidyl]methyl]-1-(3-metbylbicyclo[1.1.1]pentane-1-carbonyl)piperidine-4-carboxylic acid] | 15.7
CC(C)c1ccnn1C1(C(=O)Nc2ccc(Cl)cc2OC(F)F)CCN([C@@H]2CO[C@H](C(=O)O)C2)CC1 (single isomer, unassigned) [Compound 137] | 57.2
CC1CCc2cnn(C3(C(=O)Nc4ccc(Cl)cc4OC(F)F)CCN([C@H]4C[C@@H](C(=O)O)C4)CC3)c21 (stereo partly shown) [Compound 104, (1s,3s)-3-[4-[[4-chloro-2-(difluoromethoxy)phenyl]carbamoyl]-4-(6-methyl-5,6-dibydro-4H-cyclopenta[c]pyrazol-1-yl)-1-piperidyl] cyclobutanecarboxylic acid] | 44.7
CC(C)c1ccnn1C1(C(=O)Nc2ccc(Cl)cc2OC(F)F)CCN([C@H]2C[C@@](C(=O)O)(C(F)F)C2)CC1 [Compound 220, (1s,3s)-3-[4-[[4-chloro-2-(difluoromethoxy)phenyl]carbamoyl]-4-(5-isopropylpyrazol-1-yl)-1-piperidyl]-1-(difluoromethyl) cyclobutanccarboxylic acid] | 71.5
COC(=O)N[C@]1(C(=O)O)C[C@@H](N2CCC(C(=O)Nc3ccc(Cl)cc3OC(F)F)(n3nccc3C(C)C)CC2)C1 [Compound 131] | 134
COC[C@H](CN1CCC(C(=O)Nc2ccc(Cl)cc2OC(F)F)(n2ncc(Cl)c2C(C)C)CC1)C(=O)O [Compound 205, (2S)-2-[[4-[[4-chloro-2-(difluoromethoxy)phenyl]carbamoyl]-4-(4-chloro-5-isopropyl-pyrazol-1-yl)-1-piperidyl]methyl]-3-methoxy-propanoic acid] | 17.9
CC(C)c1ccnn1C1(C(=O)Nc2ccc(Cl)cc2OC(F)F)CCN(C2CC(NC(=O)OC(C)(C)C)(C(=O)O)C2)CC1 (stereo not shown) [Compound 124, 1-(tert-butoxycarbonylamino)-3-[4-[[4-chloro-2-(difluoromethoxy)phenyl]carbamoyl]-4-(5-isopropylpyrazol-1-yl)-1-piperidyl] cyclobutanecarboxylic acid] | 49.3
CC(C)c1ccnn1C1(C(=O)Nc2ccc(Cl)cc2OC(F)F)CCN(CC(CO)C(=O)O)CC1 (stereo not shown) [Compound 120, 2-[[4-[[4-chloro-2-(difluoromethoxy)phenyl]carbamoyl]-4-(5-isopropylpyrazol-1-yl)-1-piperidyl]methyl]-3-hydroxy-propanoic acid] | 34.7
CC(C)c1ccnn1C1(C(=O)Nc2ccc(Cl)cc2OC(F)F)CCN([C@H]2CC[C@H](C(=O)O)OC2)CC1 (single isomer, unassigned) [Compound 192] | 65.6
CC(C)c1ccnn1C1(C(=O)Nc2ccc(Cl)cc2OC(F)F)CCN(C[C@@H](C(=O)O)N2CCOCC2)CC1 (single isomer, unassigned) [Compound 150, (25)-3-[4-[[4-chloro-2-(difluoromethoxy)phenyl]carbamoyl]-4-(5-isopropylpyrazol-1-yl)-1-piperidyl]-2-morpholino-propanoic acid] | 99.5
COc1ccc(C(CN2CCC(C(=O)Nc3ccc(Cl)cc3OC(F)F)(n3nccc3C(C)C)CC2)C(=O)O)cc1 (stereo not shown) [Compound 19, 3-[4-[[4-chloro-2-(difluoromethoxy)phenyl]carbamoyl]-4-(5-isopropylpyrazol-1-yl)-1-piperidyl]-2-(4-methoxyphenyl) propanoic acid] | 9.56
CC(C)c1ccnn1C1(C(=O)Nc2ccc(Cl)cc2OC(F)F)CCN(C2CC(O)(C(=O)O)C2)CC1 (stereo not shown) [Compound 121, 3-[4-[[4-chloro-2-(difluoromethoxy)phenyl]carbamoyl]-4-(5-isopropylpyrazol-1-yl)-1-piperidyl]-1-hydroxy-cyclobutanecarboxylic acid] | 48.8
CC(C)c1ccnn1C1(C(=O)Nc2ccc(Cl)cc2OC(F)F)CCN(CC2(C(=O)O)CCN(C(=O)C34CC(C3)C4)CC2)CC1 [Compound 69, 1-(bicyclo[1.1.1]pentane-1-carbonyl)-4-[[4-[[4-chloro-2-(difluoromethoxy)phenyl]carbamoyl]-4-(5-isopropylpyrazol-1-yl)-1-piperidyl]methyl]piperidine-4-carboxylic acid] | 14.8
CC(C)c1ccnn1C1(C(=O)Nc2ccc(Cl)cc2OC(F)F)CCN(CC(C(=O)O)c2cnn(C)c2)CC1 (stereo not shown) [Compound 147, 3-[4-[[4-chloro-2-(difluoromethoxy)phenyl]carbamoyl]-4-(5-isopropylpyrazol-1-yl)-1-piperidyl]-2-(1-methylpyrazol-4-yl)propanoic acid] | 167
COC[C@@H](CN1CCC(C(=O)Nc2ccc(Cl)cc2OC(F)F)(n2nccc2C(C)C)CC1)C(=O)O (single isomer, unassigned) [Compound 119] | 15.5
